Results on two molecules are retold here after ChEMBL document CHEMBL3774385, “Small molecule glycoconjugates with anticancer activity” (Eur J Med Chem, 2016).

The source made the active and inactive calls. No cut-off for these calls is given here.

Test system in one assay: not listed separately
The assay can be described thus: Binding affinity to Cu2+ assessed as compound-metal complex formation at compound to metal ratio of 1:0, 1:1, 2:1, 3:1, 4:1 and 5:1 after 30 mins by UV-visible spectrophotometry.
Conditions: not given
Take `CC(=O)OC[C@H]1O[C@@H](Sc2ccc(NC(=O)c3ccc4ccc(C)nc4c3O)cn2)[C@H](OC(C)=O)[C@@H](OC(C)=O)[C@@H]1OC(C)=O`: the outcome was Active.
Regarding `CC(=O)OC[C@H]1O[C@@H](Sc2ccc(NC(=O)c3ccc4ccc(C)nc4c3O)cc2)[C@H](OC(C)=O)[C@@H](OC(C)=O)[C@H]1OC(C)=O`, the outcome was Active.

Test system in a further assay: not listed separately
Nature of the assay: Binding affinity to Zn2+ assessed as compound-metal complex formation at compound to metal ratio of 1:0, 1:1, 2:1, 3:1, 4:1 and 5:1 after 30 mins by UV-visible spectrophotometry.
Conditions: not given
In the case of `CC(=O)OC[C@H]1O[C@@H](Sc2ccc(NC(=O)c3ccc4ccc(C)nc4c3O)cn2)[C@H](OC(C)=O)[C@@H](OC(C)=O)[C@@H]1OC(C)=O`, the result was Active.
The same measure, in the same setting: to `CC(=O)OC[C@H]1O[C@@H](Sc2ccc(NC(=O)c3ccc4ccc(C)nc4c3O)cc2)[C@H](OC(C)=O)[C@@H](OC(C)=O)[C@H]1OC(C)=O` belongs “Active”.

A further assay relates to HCT-116. The assay can be described thus: Induction of apoptosis in p53 expressing human HCT116 cells assessed as caspase-3/7 activation at IC50 after 30 to 48 hrs by luminescence assay. Type of assay: functional, cell-based.
Conditions: not given
As to `CC(=O)OC[C@H]1O[C@@H](Sc2ccc(NC(=O)c3ccc4ccc(C)nc4c3O)cn2)[C@H](OC(C)=O)[C@@H](OC(C)=O)[C@@H]1OC(C)=O`, the outcome was inactive.
As to `CC(=O)OC[C@H]1O[C@@H](Sc2ccc(NC(=O)c3ccc4ccc(C)nc4c3O)cc2)[C@H](OC(C)=O)[C@@H](OC(C)=O)[C@H]1OC(C)=O`, the result was Active.

The next assay relates to Calf thymus DNA. The assay can be described thus: Binding affinity to calf thymus DNA assessed as hypochromism at 3 to 25 uM after 1.5 hrs by UV-visible spectrophotometry. It counts as nucleic-acid assay. The conditions noted are these: Bos taurus.
As for `CC(=O)OC[C@H]1O[C@@H](Sc2ccc(NC(=O)c3ccc4ccc(C)nc4c3O)cn2)[C@H](OC(C)=O)[C@@H](OC(C)=O)[C@@H]1OC(C)=O`, the Activity was 41.5%.
Still for that read-out and setting: to `CC(=O)OC[C@H]1O[C@@H](Sc2ccc(NC(=O)c3ccc4ccc(C)nc4c3O)cc2)[C@H](OC(C)=O)[C@@H](OC(C)=O)[C@H]1OC(C)=O` belongs 17.2%.

Another assay has as its system HCT-116. The assay can be described thus: Induction of apoptosis in p53 expressing human HCT116 cells assessed as early apoptotic cells at IC50 after 48 hrs by acridine orange/ethidium bromide staining-based epifluorescence microscopy. Type of assay: functional, cell-based.
Conditions: not given
For the molecule `CC(=O)OC[C@H]1O[C@@H](Sc2ccc(NC(=O)c3ccc4ccc(C)nc4c3O)cn2)[C@H](OC(C)=O)[C@@H](OC(C)=O)[C@@H]1OC(C)=O`, the outcome was Active.
Same read-out and setting: to `CC(=O)OC[C@H]1O[C@@H](Sc2ccc(NC(=O)c3ccc4ccc(C)nc4c3O)cc2)[C@H](OC(C)=O)[C@@H](OC(C)=O)[C@H]1OC(C)=O` belongs “Active”.

A further assay deals with HCT-116. Nature of the assay: Antiproliferative activity against p53 deficient human HCT116 cells at IC50 after 96 hrs by MTS assay in presence of 50 uM ZnCl2.
Conditions: not given
Type of assay: functional, cell-based.
As to `CC(=O)OC[C@H]1O[C@@H](Sc2ccc(NC(=O)c3ccc4ccc(C)nc4c3O)cn2)[C@H](OC(C)=O)[C@@H](OC(C)=O)[C@@H]1OC(C)=O`, the outcome was inactive.

Another assay relates to HCT-116. The assay can be described thus: Induction of apoptosis in p53 expressing human HCT116 cells assessed as late apoptotic cells at IC50 after 48 hrs by acridine orange/ethidium bromide staining-based epifluorescence microscopy.
Conditions: not given
Type of assay: functional, cell-based.
With `CC(=O)OC[C@H]1O[C@@H](Sc2ccc(NC(=O)c3ccc4ccc(C)nc4c3O)cn2)[C@H](OC(C)=O)[C@@H](OC(C)=O)[C@@H]1OC(C)=O`, the result was Active.
Regarding `CC(=O)OC[C@H]1O[C@@H](Sc2ccc(NC(=O)c3ccc4ccc(C)nc4c3O)cc2)[C@H](OC(C)=O)[C@@H](OC(C)=O)[C@H]1OC(C)=O`, the result was Active.

Test system in another assay: not listed separately
Nature of the assay: Antiproliferative activity against p53 deficient human HCT116 cells after 96 hrs by MTS assay. It counts as functional, cell-based. The conditions noted are these: HCT-116, 96 h.
Consider `CC(=O)OC[C@H]1O[C@@H](Sc2ccc(NC(=O)c3ccc4ccc(C)nc4c3O)cn2)[C@H](OC(C)=O)[C@@H](OC(C)=O)[C@@H]1OC(C)=O`, for which the concentration for half-maximal inhibition (IC50) came to 4.42 µM.
Still for that read-out and setting: with `CC(=O)OC[C@H]1O[C@@H](Sc2ccc(NC(=O)c3ccc4ccc(C)nc4c3O)cc2)[C@H](OC(C)=O)[C@@H](OC(C)=O)[C@H]1OC(C)=O` the figure was 8.94 µM.

In another assay the test system is NHDF. Nature of the assay: Cytotoxicity against human NHDF cells after 96 hrs by MTS assay. Type of assay: cell-based.
Conditions: not given
For the molecule `CC(=O)OC[C@H]1O[C@@H](Sc2ccc(NC(=O)c3ccc4ccc(C)nc4c3O)cn2)[C@H](OC(C)=O)[C@@H](OC(C)=O)[C@@H]1OC(C)=O`, the IC50 amounted to 11.5 µM.
Turning to `CC(=O)OC[C@H]1O[C@@H](Sc2ccc(NC(=O)c3ccc4ccc(C)nc4c3O)cc2)[C@H](OC(C)=O)[C@@H](OC(C)=O)[C@H]1OC(C)=O`, the midpoint of inhibition, the IC50, lay at 13.3 µM.

The next assay has as its system HCT-116. The assay can be described thus: Induction of apoptosis in p53 deficient human HCT116 cells assessed as caspase-3/7 activation at IC50 after 30 to 48 hrs by luminescence assay. Type of assay: functional, cell-based.
Conditions: not given
`CC(=O)OC[C@H]1O[C@@H](Sc2ccc(NC(=O)c3ccc4ccc(C)nc4c3O)cn2)[C@H](OC(C)=O)[C@@H](OC(C)=O)[C@@H]1OC(C)=O`: the outcome was inactive.

Another assay concerns HCT-116. The assay can be described thus: Induction of reactive oxygen species generation in p53 expressing human HCT116 cells at 2 times IC50 for 24 hrs by inverted fluorescent microscopy.
Conditions: not given
Type of assay: functional, cell-based.
With `CC(=O)OC[C@H]1O[C@@H](Sc2ccc(NC(=O)c3ccc4ccc(C)nc4c3O)cn2)[C@H](OC(C)=O)[C@@H](OC(C)=O)[C@@H]1OC(C)=O`, the outcome was Active.
As for `CC(=O)OC[C@H]1O[C@@H](Sc2ccc(NC(=O)c3ccc4ccc(C)nc4c3O)cc2)[C@H](OC(C)=O)[C@@H](OC(C)=O)[C@H]1OC(C)=O`, the result was Active.

Test system in another assay: not listed separately
Nature of the assay: Antiproliferative activity against p53 expressing human HCT116 cells after 96 hrs by MTS assay. Type of assay: functional, cell-based. The settings on record: HCT-116, 96 h.
Molecule `CC(=O)OC[C@H]1O[C@@H](Sc2ccc(NC(=O)c3ccc4ccc(C)nc4c3O)cn2)[C@H](OC(C)=O)[C@@H](OC(C)=O)[C@@H]1OC(C)=O` registered a concentration for half-maximal inhibition (IC50) of 4.88 µM.
On to `CC(=O)OC[C@H]1O[C@@H](Sc2ccc(NC(=O)c3ccc4ccc(C)nc4c3O)cc2)[C@H](OC(C)=O)[C@@H](OC(C)=O)[C@H]1OC(C)=O`, for which inhibition was half-maximal at 12.6 µM (IC50).

For a further assay, the system named is HCT-116. Nature of the assay: Antiproliferative activity against p53 expressing human HCT116 cells at IC50 after 3 to 96 hrs by MTS assay in presence of 10 to 50 uM glucose. It counts as functional, cell-based.
Conditions: not given
Regarding `CC(=O)OC[C@H]1O[C@@H](Sc2ccc(NC(=O)c3ccc4ccc(C)nc4c3O)cn2)[C@H](OC(C)=O)[C@@H](OC(C)=O)[C@@H]1OC(C)=O`, the outcome was inactive.
With `CC(=O)OC[C@H]1O[C@@H](Sc2ccc(NC(=O)c3ccc4ccc(C)nc4c3O)cc2)[C@H](OC(C)=O)[C@@H](OC(C)=O)[C@H]1OC(C)=O`, the outcome was inactive.

The subject of a further assay is HCT-116. The assay can be described thus: Decrease in GSH level in p53 expressing human HCT116 cells at IC50 after 12 hrs by luminescence analysis. Type of assay: functional, cell-based.
Conditions: not given
With `CC(=O)OC[C@H]1O[C@@H](Sc2ccc(NC(=O)c3ccc4ccc(C)nc4c3O)cn2)[C@H](OC(C)=O)[C@@H](OC(C)=O)[C@@H]1OC(C)=O`, the result was Active.

Test system in another assay: not listed separately
The assay can be described thus: Antiproliferative activity against p53 deficient human HCT116 cells at IC50 after 96 hrs by MTS assay in presence of 20 uM CuCl2. It counts as functional, HCT-116.
Conditions: not given
Take `CC(=O)OC[C@H]1O[C@@H](Sc2ccc(NC(=O)c3ccc4ccc(C)nc4c3O)cn2)[C@H](OC(C)=O)[C@@H](OC(C)=O)[C@@H]1OC(C)=O`: the Activity is 75%.

The next assay deals with HCT-116. Nature of the assay: Induction of intracellular reactive oxygen species generation in p53 expressing human HCT116 cells at IC50 after 12 hrs by fluorescence-based plate reader analysis. It counts as functional, cell-based.
Conditions: not given
Turning to `CC(=O)OC[C@H]1O[C@@H](Sc2ccc(NC(=O)c3ccc4ccc(C)nc4c3O)cn2)[C@H](OC(C)=O)[C@@H](OC(C)=O)[C@@H]1OC(C)=O`, the outcome was Active.
